Results from paper PMC6642186, “Molecular mechanism of setron-mediated inhibition of full-length 5-HT3A receptor” (Nature Communications, 2019).
Positions count from the first letter of the chain named. Blank lines part the entries; values can stand above or below the compound they belong to.

Tests used:
[1] = tertiary ammonium in the bicyclic ring; no reference given; cited from earlier work
α7nAChR = system: α7nAChR; set-up: method as in PMID 11212100, PMID 15781147; details: cited from earlier work
wild-type (WT) 5-HT3AR = molecular target: T1, wild-type (WT) 5-HT3AR (Mus musculus, UniProt P23979); test: Serotonin dose response by TEVC recordings in oocytes; type: cell-based; details: for Normalized current: wt
T1 construct: Full-length 5-HT3AR messenger RNA (mRNA) was injected into oocytes; expressed in transfected cells; host or cells: Xenopus laevis oocytes (mRNA injection, pTLN vector)
T1 sequence (P23979 24-483 isoform P23979-2 limits assumed): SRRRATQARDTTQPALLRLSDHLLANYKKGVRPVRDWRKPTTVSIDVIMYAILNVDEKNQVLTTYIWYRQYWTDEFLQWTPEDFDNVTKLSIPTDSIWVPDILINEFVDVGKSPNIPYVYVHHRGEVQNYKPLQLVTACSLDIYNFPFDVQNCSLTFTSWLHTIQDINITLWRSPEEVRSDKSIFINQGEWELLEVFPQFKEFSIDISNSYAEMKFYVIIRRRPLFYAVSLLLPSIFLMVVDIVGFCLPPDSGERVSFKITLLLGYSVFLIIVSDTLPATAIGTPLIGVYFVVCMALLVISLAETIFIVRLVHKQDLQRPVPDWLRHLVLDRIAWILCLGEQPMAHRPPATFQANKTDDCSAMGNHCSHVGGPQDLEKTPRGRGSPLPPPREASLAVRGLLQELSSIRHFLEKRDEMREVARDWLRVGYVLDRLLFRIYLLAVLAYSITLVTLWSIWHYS
Procedure: (§1) Data are shown as mean ± s.d. (n is indicated within parentheses). Significance at p = 0.001 (***) and […] calculated by two-sample t test for WT and mutants. Source data are provided as a Source Data file
(§2) The gene encoding mouse 5-HT3AR (purchased from GenScript) was inserted into a Xenopus laevis expression vector (pTLN) using cloning primers shown in Supplementary Table 1. DNA linearization was carried out with the Mlu1 restriction enzyme overnight at 37 °C. mRNA synthesis was done using the mMessage mMachine Kit (Ambion) as per the manufacturer’s instructions and purification was done with RNAeasy Kit (Qiagen). mRNA for studied mutants was prepared in the same way. Three to ten nanograms of mRNA was injected into X. laevis oocytes (stages V–VI) and experiments were performed 2–5 days after injection. For control experiments to verify that no endogenous currents were present, oocytes were injected with the same volume of water. W.F. Boron kindly provided oocytes used in this study. Female X. laevis were purchased from Nasco. Animal experimental procedures were approved by Institutional Animal Care and Use Committee (IACUC) of Case Western Reserve University. […] Oocytes were clamped at a holding potential of −60 mV. Solutions were changed using a syringe pump perfusion system flowing at a rate of 6 ml/min.

5-HT3AR W63Y mutant = molecular target: T2, 5-HT3AR W63Y mutant (Mus musculus, UniProt P23979, W90Y); test: as above; type: cell-based
T2 construct: Full-length 5-HT3AR messenger RNA (mRNA) was injected into oocytes; expressed in transfected cells; host or cells: Xenopus laevis oocytes (mRNA injection, pTLN vector)
T2 sequence (P23979 24-483 isoform P23979-2 W90Y): T1 sequence (P23979 24-483 isoform P23979-2 limits assumed) with W67Y
Procedure: as §1, §2

5-HT3AR W156Y mutant = molecular target: T3, 5-HT3AR W156Y mutant (Mus musculus, UniProt P23979, W183Y); test: as above; type: cell-based
T3 construct: Full-length 5-HT3AR messenger RNA (mRNA) was injected into oocytes; expressed in transfected cells; host or cells: Xenopus laevis oocytes (mRNA injection, pTLN vector)
T3 sequence (P23979 24-483 isoform P23979-2 W183Y): T1 sequence (P23979 24-483 isoform P23979-2 limits assumed) with W160Y
Procedure: as §1, §2

5-HT3AR R65A mutant = molecular target: T4, 5-HT3AR R65A mutant (Mus musculus, UniProt P23979, R92A); test: as above; type: cell-based
T4 construct: Full-length 5-HT3AR messenger RNA (mRNA) was injected into oocytes; expressed in transfected cells; host or cells: Xenopus laevis oocytes (mRNA injection, pTLN vector)
T4 sequence (P23979 24-483 isoform P23979-2 R92A): T1 sequence (P23979 24-483 isoform P23979-2 limits assumed) with R69A
Procedure: as §1, §2

5-HT3AR Y207F mutant = molecular target: T5, 5-HT3AR Y207F mutant (Mus musculus, UniProt P23979, Y234F); test: as above; type: cell-based
T5 construct: Full-length 5-HT3AR messenger RNA (mRNA) was injected into oocytes; expressed in transfected cells; host or cells: Xenopus laevis oocytes (mRNA injection, pTLN vector)
T5 sequence (P23979 24-483 isoform P23979-2 Y234F): T1 sequence (P23979 24-483 isoform P23979-2 limits assumed) with Y211F
Procedure: as §1, §2

5-HT3AR Y126F mutant = molecular target: T6, 5-HT3AR Y126F mutant (Mus musculus, UniProt P23979, Y153F); test: as above; type: cell-based
T6 construct: Full-length 5-HT3AR messenger RNA (mRNA) was injected into oocytes; expressed in transfected cells; host or cells: Xenopus laevis oocytes (mRNA injection, pTLN vector)
T6 sequence (P23979 24-483 isoform P23979-2 Y153F): T1 sequence (P23979 24-483 isoform P23979-2 limits assumed) with Y130F
Procedure: as §1, §2

[2] = system: human 5-HT3AR with mutations at the Arg65 position; set-up: method as in PMID 28137449; details: cited from earlier work
[3] = serotonin dose response, TEVC at −60 mV, oocytes

SMILES: CN1C2CCCC1CC(NC(=O)c1nn(C)c3ccccc13)C2 (stereo not shown) [granisetron]
pKa [1]: 9.6 | binding to α7nAChR (α7nAChR): does not bind

Hill coefficient (nH) (wild-type (WT) 5-HT3AR; serotonin dose response, TEVC at −60 mV, oocytes, WT): 2.3 ± 0.17 | Normalized current (wild-type (WT) 5-HT3AR; 1 microM serotonin): 0.091 | Normalized current (wild-type (WT) 5-HT3AR; 2 microM serotonin): 0.3528 | Normalized current (wild-type (WT) 5-HT3AR; 3 microM serotonin): 0.5303 | Normalized current (wild-type (WT) 5-HT3AR; 5 microM serotonin): 0.8338 | Normalized current (wild-type (WT) 5-HT3AR; 10 microM serotonin): 0.9464 | Normalized current (wild-type (WT) 5-HT3AR; 30 microM serotonin): 1 | Normalized current (5-HT3AR W63Y mutant; 2 microM serotonin): 0.00868 | Normalized current (5-HT3AR W63Y mutant; 5 microM serotonin): 0.07991 | Normalized current (5-HT3AR W63Y mutant; 10 microM serotonin): 0.4765 | Normalized current (5-HT3AR W63Y mutant; 15 microM serotonin): 0.7556 | Normalized current (5-HT3AR W63Y mutant; 30 microM serotonin): 0.8311 | Normalized current (5-HT3AR W63Y mutant; 100 microM serotonin): 1 | Hill coefficient (nH) (5-HT3AR W63Y mutant; [3]): 3.1 ± 0.72 | Normalized current (5-HT3AR W156Y mutant; 20 microM serotonin): 0.00976 | Normalized current (5-HT3AR W156Y mutant; 50 microM serotonin): 0.04708 | Normalized current (5-HT3AR W156Y mutant; 100 microM serotonin): 0.2083 | Normalized current (5-HT3AR W156Y mutant; 200 microM serotonin): 0.2793 | Normalized current (5-HT3AR W156Y mutant; 500 microM serotonin): 0.6574 | Normalized current (5-HT3AR W156Y mutant; 1000 microM serotonin): 0.8828 | Normalized current (5-HT3AR W156Y mutant; 2000 microM serotonin): 1 | Hill coefficient (nH) (5-HT3AR W156Y mutant; [3]): 1.58 ± 0.24 | Normalized current (5-HT3AR R65A mutant; 2.5 microM serotonin): 0.00482 | Normalized current (5-HT3AR R65A mutant; 5 microM serotonin): 0.04808 | Normalized current (5-HT3AR R65A mutant; 15 microM serotonin): 0.6252 | Normalized current (5-HT3AR R65A mutant; 20 microM serotonin): 0.7837 | Normalized current (5-HT3AR R65A mutant; 100 microM serotonin): 1 | Hill coefficient (nH) (5-HT3AR R65A mutant; [3]): 4.4 ± 0.59 | Normalized current (5-HT3AR Y207F mutant; 5 microM serotonin): 0.02946 | Normalized current (5-HT3AR Y207F mutant; 10 microM serotonin): 0.2522 | Normalized current (5-HT3AR Y207F mutant; 30 microM serotonin): 0.6081 | Normalized current (5-HT3AR Y207F mutant; 50 microM serotonin): 0.8641 | Normalized current (5-HT3AR Y207F mutant; 100 microM serotonin): 0.8795 | Normalized current (5-HT3AR Y207F mutant; 250 microM serotonin): 0.9933 | Normalized current (5-HT3AR Y207F mutant; 500 microM serotonin): 0.9971 | Normalized current (5-HT3AR Y207F mutant; 1000 microM serotonin): 1 | Hill coefficient (nH) (5-HT3AR Y207F mutant; [3]): 1.9 ± 0.27 | Normalized current (5-HT3AR Y126F mutant; 10 microM serotonin): 0.04616 | Normalized current (5-HT3AR Y126F mutant; 30 microM serotonin): 0.2137 | Normalized current (5-HT3AR Y126F mutant; 50 microM serotonin): 0.6516 | Normalized current (5-HT3AR Y126F mutant; 100 microM serotonin): 0.7792 | Normalized current (5-HT3AR Y126F mutant; 250 microM serotonin): 0.904 | Normalized current (5-HT3AR Y126F mutant; 500 microM serotonin): 0.985 | Normalized current (5-HT3AR Y126F mutant; 1000 microM serotonin): 1 | Hill coefficient (nH) (5-HT3AR Y126F mutant; [3]): 2.6 ± 0.71
SMILES: NCCc1c[nH]c2ccc(O)cc12 [serotonin]

SMILES: CN1[C@@H]2CC[C@H]1C[C@@H](OC(=O)c1c[nH]c3ccccc13)C2 [tropisetron]
effect of mutations at the Arg65 position on binding [2]: only reduced | binding to α7nAChR (α7nAChR): bind to α7nAChR leading to channel activation
